# Like-named read-outs stand apart in the source and are kept apart here.
# Columns and labels:
# α7 nAChR = α7 nAChR (Rattus norvegicus (Rat), UniProt Q05941); format: binding; conditions: Table 1; mean of 3 to 5 measurements
# Method: (§1) In Vitro Binding Affinities for nAChR Subtypes. […] To determine selectivities of these compounds in binding assays among the three predominant nAChR subtypes, α3β4, α4β2 and α7, the ratios of Ki values (α3β4/α4β2 and α7/α4β2) were determined.
# (§2) Cell Lines and Cell Culture. The cell lines expressing defined rat nAChR subtypes were established previously by stably transfecting HEK 293 cells with rat nAChR subunit genes. The cell line expressing human α4β2 nAChRs, YXα4β2H1, was established recently. These cell lines were maintained in minimum essential medium (MEM) supplemented with 10% fetal bovine serum, 100 units/mL penicillin G, […] and selective antibiotics at 37° C. with 5% CO2 in a humidified incubator. Fetal bovine serum was provided by Gemini Bio-Products (Woodland, Calif.). Tissue culture medium and antibiotics were obtained from Invitrogen Corporation (Carlsbad, Calif.), unless otherwise stated.
# (§3) Briefly, cultured cells at >80% confluence were removed from their flasks (80 cm^2) with a disposable cell scraper and placed in 10 mL of 50 mM Tris.HCl buffer (pH 7.4, 4° C.). The cell suspension was centrifuged at 10,000×g for 5 min and the pellet was collected. The cell pellet was then homogenized in 10 mL buffer with a polytron homogenizer and centrifuged at 36,000 g for 10 min at 4° C. The membrane pellet was resuspended in fresh buffer, and aliquots of the membrane preparation were used for binding assays. […] Bound and free ligands were separated by vacuum filtration through Whatman GF/C filters treated with 0.5% polyethylenimine. The filter-retained radioactivity was measured by liquid scintillation counting. Specific binding was defined as the difference between total binding and nonspecific binding. Data from competition binding assays were analyzed using Prism 5 (GraphPad Software, San Diego, Calif.).
# (§4) Pharmacological Properties. We measured the in vitro binding affinities of the ligands for defined receptor subtypes (α2β2, α2β4, α3β2, α3β4, α4β2, α4β4, α6β2, α6β4, and α7) expressed in stably transfected cell lines. […] Rat forebrain homogenates were included to allow comparison between the heterologous and native α4β2 and α7 nAChRs. See Table 1 for binding affinity values (Ki) of the ligands at the three major nAChR subtypes (α3β4. α4β2 and α7).
# α4β2 nAChR = α4β2 nAChR (Rattus norvegicus (Rat), UniProt P09483+P12390); assay: biochemical; format: binding
# Method: as §1, §2, §3, §4
# human α4β2 nAChRs = human α4β2 nAChRs (Homo sapiens (Human), UniProt P17787+P43681); assay: 86Rb+ efflux assay (activation and desensitization), α4β2; format: cell-based; conditions: for Emax: read-out: Emax α4β2 nAChRs; for IC50: desensitization
# Method: (§5) In Vitro Effects on nAChR Function. […] Their agonist activities were assessed by measuring stimulated ^86Rb^+ efflux from stably transfected cells, either expressing human α4β2 nAChRs or rat α3β4 receptors.
# as §2
# (§6) ^86Rb^+ Efflux Assay. Functional properties of compounds at nAChRs expressed in the transfected cells were measured using ^86Rb^+ efflux assays as described previously. In brief, cells expressing human α4β2 or rat α3β4 nAChRs were plated into 24-well plates coated with poly-D-lysine. The plated cells were grown at 37° C. for 18 to 24 hour to reach 85-95% confluence. The cells were then incubated in growth medium (0.5 mL/well) containing ^86Rb^+ (2 μCi/mL) for 4 hour at 37° C. The loading mixture was then aspirated, and the cells were washed four times with 1 mL buffer (15 mM HEPES, 140 mM NaCl, 2 mM KCl, 1 mM MgSO4, 1.8 mM CaCl2, 11 mM Glucose, pH 7.4). One mL of buffer with or without compounds to be tested was then added to each well. After incubation for 2 min, the assay buffer was collected for measurements of ^86Rb^+ released from the cells. Cells were then lysed by adding 1 mL of 100 mM NaOH to each well, and the lysate was collected for determination of the amount of ^86Rb^+ that was in the cells at the end of the efflux assay. Radioactivity of assay samples and lysates was measured by liquid scintillation counting. Total loading (cpm) was calculated as the sum of the assay sample and the lysate of each well. The amount of ^86Rb^+ efflux was expressed as a percentage of ^86Rb^+ loaded. […] For obtaining EC50 and Emax values, stimulation curves were constructed in which 8 different concentrations of a ligand were included in the assay. […] EC50, Emax and IC50(10′) values were determined by nonlinear least-squares regression analyses (GraphPad, San Diego, Calif.).
# (§7) The functional properties of the ligands were determined by ^86Rb^+ efflux assays in cells expressing α3β4 and α4β2 nAChR subtypes. The functional activity of each ligand was measured for its agonism, antagonism and desensitization ability. Agonist activity for each of the ligands was tested at eight different concentrations. […] The full concentration-effect curves generated potency (EC50) and efficacy (Emax) of each ligand. […] We tested each ligand for antagonist activity at eight concentrations. The potency (IC50(0′)) of each ligand as an antagonist was derived from the full concentration-effect curves.
# α3β4 nAChR = α3β4 nAChR (Rattus norvegicus (Rat), UniProt P04757+P12392); assay: [3H]-epibatidine competition binding, α3β4; conditions: Table 1; mean of 3 to 5 measurements
# Method: as §1, §2, §3, §4
# rat α3β4 nAChRs = rat α3β4 nAChRs (Rattus norvegicus (Rat), UniProt P04757+P12392); assay: 86Rb+ efflux assay (activation and desensitization), α3β4; format: cell-based; conditions: read-out: IC50(10′) α3β4 nAChRs
# Method: as §5, §2, §6, §7
compound,measurement,setting,value
"CCCCC#Cc1cnc(C)c(OC[C@@H]2CCN2)c1 [(S)-15, (S)-3-(azetidin-2-ylmethoxy)-5-(hex-1-ynyl)-2-methylpyridine]",Ki,α7 nAChR,93000 nM
same,Ki,"α4β2 nAChR; Table 3 (Example 4), read-out: Ki α4β2",12 nM
same,Ki Ratio α3β4/α4β2,α4β2 nAChR; selectivity for α4β2 over α3β4,"19,000"
same,Ki Ratio α7/α4β2,α4β2 nAChR; selectivity for α4β2 over α7,"7,800"
same,EC50,"human α4β2 nAChRs; agonist activity, ND = no significant stimulated efflux detected",310 nM
same,Emax,"human α4β2 nAChRs; agonist efficacy normalized to Emax of nicotine, ND = no significant stimulated efflux detected",< 20%
same,IC50,"human α4β2 nAChRs; 10 min pre-treatment, Table 3 (Example 4), read-out: IC50(10′) α4β2",18 nM
same,IC50,"human α4β2 nAChRs; 10 min pre-incubation before 100 μM nicotine, Table 2, read-out: IC50(10′) α4β2 nAChRs",180 nM
same,Emax,human α4β2 nAChRs,15%
same,Ki,α3β4 nAChR,230000 nM
same,IC50,rat α3β4 nAChRs,> 10000 nM

# — patent US9303017B2, “2,5-disubstituted-pyridyl nicotinic ligands, and methods of use thereof” (Georgetown University, priority 2011, dated 2016)
